In PubChem BioAssay AID1194 (EPA DSSTox, 2008) one finds outcome data, which are given here for 51 compounds.

For this series, the system named is Salmonella typhimurium Ames mutagenicity, literature compiled. Nature of the series: DSSTox (CPDBAS) Carcinogenic Potency Database Salmonella Mutagenicity. In a few lines:
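Literature-compiled Salmonella result: chemical called active if rated overall "mutagenic" or "weakly mutagenic" by Zeiger or overall "positive" by the EPA Gene-Tox Program.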

Activity calls are given as the source filed them.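 How the source made its calls: active means chemicals rated mutagenic or weakly mutagenic in the Salmonella bacterial test by one literature review, or positive overall by another; inconclusive means no clear call, values can overlap the other calls; inactive means the rest.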

With `COc1cc(-c2ccc(N)c(OC)c2)ccc1N`, the outcome was “active; inactive”.
The entry for `C=C(C)C#N` is “inactive; active”.
The entry for `CN(Cc1cnc2nc(N)nc(N)c2n1)c1ccc(C(=O)N[C@@H](CCC(=O)O)C(=O)O)cc1` is “inactive”; for `FC(F)OC(Cl)C(F)(F)F` (stereo unspecified) it is “inactive”; for `CCOP(=S)(OCC)Oc1ccc([N+](=O)[O-])cc1` it is “inactive”.
Regarding `CCn1c2ccccc2c2cc(N)ccc21`, the result was active.
As for `CCC1(c2ccccc2)C(=O)NC(=O)NC1=O`, the outcome was active.
As for `C[C@]12C=CC(=O)C=C1CC[C@@H]1[C@@H]2[C@@H](O)C[C@@]2(C)[C@H]1CC[C@]2(O)C(=O)CO`, the outcome is “inactive; active”.
Take `BrCCBr`: the outcome was active.
The entry for `O=S(=O)(O)c1ccc(N=Nc2cc(S(=O)(=O)O)c3ccccc3c2O)c2ccccc12` is “active; inactive”; for `NCCc1ccc(O)c(O)c1` it is “active”.
The result for `O=S(=O)(O)c1c(N=Nc2c(O)ccc3ccccc23)ccc2ccccc12` reads “inactive; active”; that for `CC(C)[N+](=O)[O-]`, “active”; that for `CN(C)C(=S)[S][Pb][S]C(=S)N(C)C`, “active”.
The entry for `Clc1ccc(C(c2ccc(Cl)cc2)C(Cl)Cl)cc1` is “inactive”; for `Nc1c(Br)cc(Br)c2c1C(=O)c1ccccc1C2=O` it is “active”; for `CCCNC(=O)NS(=O)(=O)c1ccc(Cl)cc1` it is “inactive; active”.
With `CCCCC(CC)COC(=O)COc1ccc(Cl)cc1Cl` (stereo unspecified), the result was inactive.
The result for `C[C@H]1C(=O)O[C@@H]2CCN3CC=C(COC(=O)[C@](C)(O)[C@]1(C)O)[C@H]23` reads “inactive; active”.
Regarding `O=NN1CCCCC1`, the result was active.
The entry for `Nc1ccc2c(c1)C(=O)c1ccccc1C2=O` is “active”; for `C[C@]12CC[C@@H]3c4ccc(O)cc4CC[C@H]3[C@@H]1CC[C@@H]2O` it is “inactive”.
The entry for `CCCN(CCC)S(=O)(=O)c1ccc(C(=O)O)cc1` is “inactive; active”; for `O=C(O)C(Cl)(Cl)Cl` it is “inactive”; for `O=C(O)CCCc1ccc(N(CCCl)CCCl)cc1` it is “active; inactive”.
The result for `CCCCOC(=O)COc1ccc(Cl)cc1Cl` reads “inactive; active”; that for `CN(CCc1ccccc1)N=O`, “active”.
For `OC(O)C(Cl)(Cl)Cl`, the outcome was active.
In the case of `CCC(Cl)CCC(Cl)C(Cl)CC(Cl)C(Cl)C(Cl)CCl` (stereo unspecified), the outcome was “inactive; active”.
The result for `C=C1C(CCl)(CCl)C2(Cl)C(Cl)C(Cl)C1(Cl)C2(Cl)Cl` (stereo unspecified) reads “active; inactive”.
The entry for `CCC(O)OC(O)CC` (stereo unspecified) is “inactive; active”; for `O=S1(=O)CCCO1` it is “active; inactive”.
The entry for `O=C/C(Cl)=C(/Cl)C(=O)O` is “active”; for `O=[N+]([O-])c1ccc(-c2nc(N3CCOCC3)c3ccccc3n2)s1` it is “active”.
Take `Nc1ccc(N)c(Cl)c1`: the outcome is “active; inactive”.
The entry for `Nc1ccc2ccccc2c1` is “active; inactive”; for `CN(C)c1ccc(N=Nc2ccccc2)cc1` it is “active; inactive”.
On to `O=CNc1nc(-c2ccc([N+](=O)[O-])o2)cs1`, for which the outcome is “active; inactive”.
The entry for `Nc1ccc(Cc2ccc(N)cc2)cc1` is “active”.
The entry for `CNC(=S)N(C)C` is “inactive; active”; for `CCO` it is “inactive; active”.
The result for `O=c1c(O)c(-c2ccc(O)c(O)c2)oc2cc(O)cc(O)c12` reads “active; inactive”; that for `c1ccc(-c2ccccc2)cc1`, “inactive”; that for `O=C(O)C1[O][Sb]2[O]C(=O)C([O]2)C(C(=O)O)[O][Sb]2[O]C(=O)C1[O]2` (stereo unspecified), “inactive”.
Regarding `c1ccc2occc2c1`, the outcome was “inactive; active”.
For `CCc1ccc(C(c2ccc(CC)cc2)C(Cl)Cl)cc1`, the outcome was active.
The result for `CCOc1ccc(NC(C)=O)cc1[N+](=O)[O-]` reads “active; inactive”; that for `CCN(CC)C(=S)S`, “inactive”.
The result for `CN(C)N=O` reads “active”.
The entry for `CCC(C)c1cc([N+](=O)[O-])cc([N+](=O)[O-])c1O` (stereo unspecified) is “inactive”.
In the case of `C=CCN(CC=C)N=O`, the outcome was active.
